Measured values taken from article PMC4169440, “Sequence Analysis and Molecular Characterization of Clonorchis sinensis Hexokinase, an Unusual Trimeric 50-kDa Glucose-6-Phosphate-Sensitive Allosteric Enzyme” (PLoS ONE, 2014).

Legend:
[1] = molecular target: T1, rCsHK (recombinant Clonorchis sinensis hexokinase, CsHK) (Clonorchis sinensis, UniProt G7YJ23); assay: G6PD-coupled NADPH assay at […] nm; assay type: biochemical; conditions: 3 mM glucose, with respect to ATP
T1 construct: gene CLF_109217; homotrimer about 164 kDa
T1 sequence (G7YJ23 1-449): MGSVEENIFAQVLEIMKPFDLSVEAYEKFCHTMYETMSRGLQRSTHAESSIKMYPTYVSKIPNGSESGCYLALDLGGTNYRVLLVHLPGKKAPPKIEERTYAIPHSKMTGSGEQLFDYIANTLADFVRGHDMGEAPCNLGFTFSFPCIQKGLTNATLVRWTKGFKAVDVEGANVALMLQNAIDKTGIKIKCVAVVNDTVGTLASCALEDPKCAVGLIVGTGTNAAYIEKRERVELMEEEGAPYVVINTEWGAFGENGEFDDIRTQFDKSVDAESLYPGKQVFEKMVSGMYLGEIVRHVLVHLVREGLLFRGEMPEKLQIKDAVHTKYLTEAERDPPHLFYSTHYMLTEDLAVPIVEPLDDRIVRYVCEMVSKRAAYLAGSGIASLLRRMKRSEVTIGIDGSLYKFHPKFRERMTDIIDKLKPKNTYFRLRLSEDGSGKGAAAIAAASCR

[2] = molecular target: T1, rCsHK (recombinant Clonorchis sinensis hexokinase, CsHK); assay: coupled pyruvate kinase / lactate dehydrogenase ADP assay at […] nm; assay type: biochemical; conditions: 0-4 mM G6P; with respect to ATP or glucose; allosteric inhibitor, dose-independent; also product
[3] = molecular target: T1, rCsHK (recombinant Clonorchis sinensis hexokinase, CsHK); assay: G6PD-coupled NADPH assay at […] nm; assay type: biochemical; conditions: read-out: relative enzymatic activity at 4 mM
[4] = substrate: Nc1ncnc2c1ncn2[C@@H]1O[C@H](COP(=O)(O)OP(=O)(O)OP(=O)(O)O)[C@@H](O)[C@H]1O; assay: purified protein; assay type: biochemical, Clonorchis sinensis; conditions: 3 mM glucose, 15 mM MgCl2, 100 mM Tris-Cl pH 8.5, 37 °C, sigmoidal, Mg-ATP true substrate

Nc1ncnc2c1ncn2[C@@H]1O[C@H](COP(=O)(O)OP(=O)(O)O)[C@@H](O)[C@H]1O [ADP]
G6PD-coupled NADPH assay at 340 nm ([1]; 0-3 mM ADP, mixed allosteric effector, also product): ADP, which is a product of HK, exhibited an unusual mixed allosteric effect on CsHK

O=P(O)(O)OC[C@H]1OC(O)[C@H](O)[C@@H](O)[C@@H]1O (some centres unmarked) [glucose-6-phosphate]
coupled pyruvate kinase / lactate dehydrogenase ADP assay at 340 nm [2]: Different concentrations G6P displayed the net allosteric inhibition of rCsHK

O=P(O)(O)OP(=O)(O)O [inorganic pyrophosphate]
G6PD-coupled NADPH assay at 340 nm ([1]; 0-3 mM PPi, allosteric activator, not a substrate): Different concentrations of PPi displayed a net allosteric activation of rCsHK with respect to ATP

O=C(C1CCCCC1)N1CC(=O)N2CCc3ccccc3C2C1 (centres unmarked) [praziquantel]
activity at 4000 µM [3]: 45%

B1: rCsHK (recombinant Clonorchis sinensis hexokinase, CsHK) (Clonorchis sinensis) (protein)
chain: MGSVEENIFAQVLEIMKPFDLSVEAYEKFCHTMYETMSRGLQRSTHAESSIKMYPTYVSKIPNGSESGCYLALDLGGTNYRVLLVHLPGKKAPPKIEERTYAIPHSKMTGSGEQLFDYIANTLADFVRGHDMGEAPCNLGFTFSFPCIQKGLTNATLVRWTKGFKAVDVEGANVALMLQNAIDKTGIKIKCVAVVNDTVGTLASCALEDPKCAVGLIVGTGTNAAYIEKRERVELMEEEGAPYVVINTEWGAFGENGEFDDIRTQFDKSVDAESLYPGKQVFEKMVSGMYLGEIVRHVLVHLVREGLLFRGEMPEKLQIKDAVHTKYLTEAERDPPHLFYSTHYMLTEDLAVPIVEPLDDRIVRYVCEMVSKRAAYLAGSGIASLLRRMKRSEVTIGIDGSLYKFHPKFRERMTDIIDKLKPKNTYFRLRLSEDGSGKGAAAIAAASCR
notes: homotrimer about 164 kDa
K0.5 [4]: 0.459 ± 0.007 mM
